Laboratory results: article PMC10949930 (ACS Chemical Biology, 2024)
In brackets after ≈: the same amount, converted by molar mass.

Key:
S. aureus = details: atropisomers compared; cited from earlier work
[1] = tested on: GFP-MinD in B. subtilis cells; test: GFP-MinD localization; assay type: cell-based, Bacillus subtilis; details: 10 min, 1× MIC, CCCP 100 μM
B. subtilis 168 cells = test: Membrane dye FM 5–95 labeling after compound exposure; assay type: cell-based, Bacillus subtilis; details: B. subtilis 168, 1× MIC, 15 min; CCCP 100 μM
S. aureus NCTC8325 cells = test: Protonophore assay, intracellular pH by BCECF AM; assay type: cell-based, Staphylococcus aureus; details: 1× MIC, 10 min; for intracellular pH after compound addition: dropped from pH 7.8
B. subtilis 168 = test: MIC, broth microdilution; assay type: cell-based; details: Bacillus subtilis, 168, 20 h, read-out: MIC B. subtilis 168
S. aureus NCTC8325 [2] = test: MIC, broth microdilution; assay type: cell-based; details: Staphylococcus aureus, NCTC8325, 20 h, read-out: MIC S. aureus NCTC8325
S. aureus NCTC8325 [3] = test: Pore-forming assay, SYTO9/propidium iodide costaining; assay type: cell-based, Staphylococcus aureus; details: 4× MIC; nisin 100 μg mL^–1; 35 min

O=C(c1ccccc1O)c1[nH]c(Cl)c(Cl)c1-n1c(C(=O)c2ccccc2O)cc(Cl)c1Cl (atropisomer, axis not shown; (M)) [(−)-(M)-MarA]
potency against S. aureus (S. aureus): equal potency

N#CC(C#N)=NNc1cccc(Cl)c1 [CCCP, carbonyl cyanide m-chlorophenyl hydrazone]
GFP-MinD localization after treatment [1]: diffuse and spotty
localization of membrane dye FM 5–95 after treatment (B. subtilis 168 cells): aggregated, inhomogeneous, “spotty” localization

Oc1c(Br)cc(Br)cc1-c1[nH]c(Br)c(Br)c1Br [compound 2, pentabromopseudilin]
drop of intracellular pH (Δ) (S. aureus NCTC8325 cells): 0.2 pH units
intracellular pH after compound addition (S. aureus NCTC8325 cells): 7.6
MIC (B. subtilis 168): 16 ng/mL (≈ 0.0289 µM)
MIC (S. aureus NCTC8325 [2]): 16 ng/mL (≈ 0.0289 µM)

Oc1c(Cl)cc(Cl)cc1-c1[nH]c(Cl)c(Cl)c1Cl [compound 3, pentachloropseudilin]
drop of intracellular pH (Δ) (S. aureus NCTC8325 cells): 0.2 pH units
intracellular pH after compound addition (S. aureus NCTC8325 cells): 7.6
membrane integrity / pore formation (SYTO9/propidium iodide) (S. aureus NCTC8325 [3]): only green fluorescence
MIC (B. subtilis 168): 4 ng/mL (≈ 0.0121 µM)
MIC (S. aureus NCTC8325 [2]): 4 ng/mL (≈ 0.0121 µM)

nisin [reference compound]
membrane integrity / pore formation (SYTO9/propidium iodide) (S. aureus NCTC8325 [3]): clear red fluorescence indicative of pore formation
